Values of other authors in US20160346267A1, “Pharmaceutical Composition Comprising Apixaban” (SANDOZ AG, priority 2014, published 2016).

solubility: poorly soluble
SMILES: COc1ccc(-n2nc(C(N)=O)c3c2C(=O)N(c2ccc(N4CCCCC4=O)cc2)CC3)cc1 [Apixaban, 1-(4-methoxyphenyl)-7-oxo-6-(4-(2-oxopiperidin-1-yl)phenyl)-4,5,6,7-tetrahydro-1H-pyrazolo[3,4-c]pyridine-3-carboxamide]
